Consider two molecules from publication PMC12221989, “One-carbon homologation of alkenes” (Nature, 2025).

For data set [1], the system named is calcineurin in the presence of Cyclophilin A. Briefly: Calcineurin inhibition assay (phosphatase activity in the presence of Cyclophilin A). Type of data set: biochemical. To be noted: for IC50: with CypA, calcineurin/calmodulin, RII phosphopeptide substrate, 30 °C 45 min, Malachite green A620, duplicate, IC50 from mean averages. As to the method:
Calcineurin inhibition assay
Calcineurin inhibition assays were conducted by Eurofins Integrated Discovery UK Ltd (EID) to determine the effect of compounds on the activity of calcineurin in the presence of Cyclophilin A. Assays were performed in duplicate, with IC50 values calculated from mean […]
Compounds were diluted with and without immunophilin (CypA) in a 96-well plate. After addition of calcineurin/calmodulin complex, the plate was incubated at 30 °C for 10 minutes.
The addition of the RII phosphopeptide substrate initiated the reaction, and the plate was […]
The reaction was stopped by the addition of Malachite green reagent. The plate was incubated at room temperature to allow colour development (5 – 20 mins). After sufficient colour has developed, the absorbance is read at 620 nm. Blank subtracted absorbance readings are plotted against compound concentration to determine IC50 values or % inhibition at the top concentration.

Data set [2] can be described thus: Reversed-phase HPLC retention as measure of lipophilicity. The settings on record: reversed-phase C18, Fig. S4-b; corroborates calculated lipophilicity.
A short description of data set [3]: in vitro. To be noted: human. As to the method: Metabolic stability assay
Hepatic microsomal stability assays were conducted by Charles River Laboratories. Assays were performed in duplicate.
The stability of the test compound (1 µM) was measured following incubation at 37 °C with […] (0.5 mg protein/mL) in the presence of the cofactor, NADPH.
Incubates were prepared in duplicate, with aliquots removed at 0, 5, 10, 20 and 40 minutes and reactions terminated, and the compound was extracted by the addition of solvent. The disappearance of the parent compound was be monitored by LC-MS/MS and the half-life determined over the time-course of incubation. The half-life value was used to calculate the in vitro intrinsic clearance expressed as µL/min/mg protein.
Table S11. Metabolic Stability Data
Half- Half- Half- Clint Clint Mean Clint
Compound Cofactor life life Life (uL/min/mg (uL/min/mg (uL/min/mg Species (min) (min) (min) protn) n=1 protn) n=2 protn) (results)

Data set [4] concerns the target Human Cyclophilin A (Homo sapiens, UniProt P62937). In words: PPIase TR-FRET competitive binding assay. How it is done: PPIase TR-FRET competitive binding assay
Cyclophilin A assays were conducted by Eurofins Integrated Discovery UK Ltd (EID) to determine the inhibitory activity of the analogues against the Human Cyclophilin A in a TR-FRET Competitive Binding assay. Assays were performed in duplicate, with Kd values calculated from mean averages. […]
binding to the CypA enzyme: the CypA enzyme, tagged with a polyhistidine sequence, forms a complex with an anti-6xHis antibody labelled with a fluorescent donor, F(d), and the enzyme […]
Compounds are diluted from DMSO stocks to 50-fold the final concentration and then in assay buffer to 2-fold the final assay plate concentration. An equal volume of compound is added to the master mix in the assay plate containing the enzyme/antibody/ligand complex, with a final concentration of detergent of 0.01%. This is incubated for 30 mins at room temperature and the plate read at 2 wavelengths (A and B) to detect emission from F(d) and F(a), respectively. The ratio B/A is calculated, blank subtracted and either expressed as a percentage of the ‘no inhibitor’ control or the blank subtracted values are plotted against the inhibitor concentration in Log10 Molar and fitted using one site Ki nonlinear regression to determine the Kd. Where possible, compound Kds are determined from duplicate data points. Each assay plate is set up with ‘no enzyme’ blanks and ‘no inhibitor’ controls, which are used to determine the Z’ value for each plate.

For data set [5], the system named is Jurkat cells. Briefly: IL-2 release assay, Jurkat cells stimulated with anti-CD3/anti-CD28. Type of data set: cell-based, human. The settings on record: for suppression of IL-2 secretion (in words): at high concentrations (≥1 µM), Jurkat T cells; for IL-2 levels, Mean: mean of three replicates normalized to the vehicle control. How it is done:
Interleukin-2 (IL-2) release assays were conducted by Eurofins Pan Labs to determine ability for the analogues to inhibit IL-2 secretion from Jurkat cells following stimulation with anti-CD3 and anti-CD28 for a period of 24 hours. Data shown are means of three replicates normalized to the vehicle control
1) Cryopreserved Jurkat cells were thawed and cultured according to established protocols for four days at 37°C, 5% CO2 prior to assay.
2) Jurkat cells were harvested and seeded into 96-well plates at a density of 2x10^5 cells/well with […]
penicillin/streptomycin, and 2 mM L-glutamine).
3) Cells were incubated at 37°C, 5% CO2 for 1 hour prior to the addition of test agents.
4) The test agents were serially diluted in DMSO to 1000X assay concentrations, then further diluted to 20X assay concentrations in culture medium. The reference inhibitor Cyclosporin A (Sigma Aldrich catalog #C1832) was diluted to 1000X assay concentrations in DMSO before dilution to 20X assay concentration in culture medium.
5) The test agents, reference inhibitor, and diluted vehicle controls were added to the cells in volumes of 10 μL in triplicate and incubated for 1 hour at 37°C, 5% CO2. […]
concentrations in culture medium. The corresponding isotype controls were diluted to 5X assay concentrations in culture medium.
7) Diluted anti-CD3/anti-CD28 was added to test agent and positive control wells in volumes of 40 μL according to the plate map. Isotype controls were added to the isotype control wells.
Culture medium was added to vehicle and unstimulated control wells. […]
assay volumes of 200 μL and control concentrations of 50 ng/mL cyclosporin A (reference inhibitor), 0.1% DMSO (vehicle), 15 μg/mL anti-CD3, and 15 μg/mL anti-CD28.
8) Cells were incubated for 24 hours at 37°C, 5% CO2.
9) At the end of the incubation period, plates were centrifuged at 200g for 10 minutes. Cell culture supernatants were collected and stored at -80°C until needed for analysis.
Data Analysis and Analyte Limits of Detection
IL-2 cytokine levels in cell culture supernatants were determined using Luminex methodology per the manufacturer’s protocol using the Human Cytokine/Chemokine/Growth Factor Panel A Kit from Millipore Sigma (catalog #HCYTA-60K) with standard ranges and limits of detection in Table S9. Levels of each cytokine were interpolated from standard curves using non-linear regression analysis in Belysa Software (Millipore Sigma). The raw data in the form of median fluorescence unit was interpolated into test concentrations (pg/mL). The interpolated data were then normalized to the vehicle control
Table S9. Analyte limit of detection
Analyte Lowest standard (pg/mL) Highest standard (pg/mL) Sensitivity (pg/mL) […]
Reported mean values (pg/mL) are from three biological replicates normalized to the vehicle […]
Fig. S5. IL-2 release by Jurkat cells following stimulation with anti-CD3/anti-CD28 and treatment with the indicated test agent for 24 hours. Error bars indicate the standard error of the […]

Where [6] appears, read: in vitro calcineurin phosphatase activity assay.

Human Cyclophilin A, sequence (P62937 whole entry): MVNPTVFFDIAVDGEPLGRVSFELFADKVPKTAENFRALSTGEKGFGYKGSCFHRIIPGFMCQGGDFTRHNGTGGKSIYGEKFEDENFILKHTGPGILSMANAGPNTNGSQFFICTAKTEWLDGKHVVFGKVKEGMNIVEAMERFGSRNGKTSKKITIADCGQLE

For `C/C=C/CC[C@@H](C)[C@@H](O)[C@H]1C(=O)N[C@@H](CC)C(=O)N(C)CC(=O)N(C)[C@@H](CC(C)C)C(=O)N[C@@H](C(C)C)C(=O)N(C)[C@@H](CC(C)C)C(=O)N[C@@H](C)C(=O)N[C@H](C)C(=O)N(C)[C@@H](CC(C)C)C(=O)N(C)[C@@H](CC(C)C)C(=O)N(C)[C@@H](C(C)C)C(=O)N1C` [compound 21, E-homo Cyclosporine-A], the “decrease in phosphatase activity compared with cyclosporine A” value in data set [1] (setting [6]) stood at 3.5 fold. Also, in data set [1], the IC50 was determined as 401 nM. Besides, the “increase of HPLC retention time upon each homologation event” value in data set [2] is ~ 2.5 minutes. Moreover, the half-life at 1 µM in data set [3] (both, liver microsomes) stood at 32 min. Besides, in data set [3], the “Clint (uL/min/mg protn) n=1” value was found to be 40 uL/min/mg protn, the “Clint (uL/min/mg protn) n=2” value worked out at 46 uL/min/mg protn, the “Half-life (min) n=1” value turned out to be 35 min and the “Half-life (min) n=2” value came to 30 min. The “Mean Clint (uL/min/mg protn)” value in data set [3] was determined as 43 uL/min/mg protn. For the same molecule, in data set [4], the Kd turned out to be 76.7 nM. Moreover, the “suppression of IL-2 secretion (in words)” value in data set [5] is given as “effectively suppressed IL-2 secretion”. For the same molecule, the “IL-2 levels, Mean” value in data set [5] (test agent 0.10 µM) was determined as 11.7 pg/mL. Further, in data set [5] (test agent 0.32 µM), the “IL-2 levels, Mean” value stood at 3.5 pg/mL. The “IL-2 levels, Mean” value in data set [5] (test agent 1.0 µM) is 1.6 pg/mL. Moreover, the “IL-2 levels, Mean” value in data set [5] (test agent 3.2 µM) turned out to be 1.1 pg/mL. Moreover, in data set [5] (test agent 10 µM), the “IL-2 levels, Mean” value worked out at 1.0 pg/mL.

On to `C/C=C/CCC[C@@H](C)[C@@H](O)[C@H]1C(=O)N[C@@H](CC)C(=O)N(C)CC(=O)N(C)[C@@H](CC(C)C)C(=O)N[C@@H](C(C)C)C(=O)N(C)[C@@H](CC(C)C)C(=O)N[C@@H](C)C(=O)N[C@H](C)C(=O)N(C)[C@@H](CC(C)C)C(=O)N(C)[C@@H](CC(C)C)C(=O)N(C)[C@@H](C(C)C)C(=O)N1C` [compound 22, E-bishomo Cyclosporine-A], for which the “calcineurin inhibition compared with cyclosporine A (in words)” value in data set [1] (setting [6]) was “retained comparable potency to cyclosporine A”. Besides, the 50% inhibitory concentration (IC50) in data set [1] is 158 nM. Also, the “increase of HPLC retention time upon each homologation event” value in data set [2] is ~ 2.5 minutes. Besides, the “Clint (uL/min/mg protn) n=1” value in data set [3] came to 81 uL/min/mg protn. Besides, the “Clint (uL/min/mg protn) n=2” value in data set [3] amounted to 78 uL/min/mg protn. Also, the “Half-life (min) n=1” value in data set [3] amounted to 17 min. The “Mean Clint (uL/min/mg protn)” value in data set [3] was found to be 79 uL/min/mg protn. Binding in data set [4] was put at a Kd of 23.6 nM. Also, in data set [5], the “suppression of IL-2 secretion (in words)” value is given as “effectively suppressed IL-2 secretion”. The “IL-2 levels, Mean” value in data set [5] (test agent 0.032 µM) is given as 7.0 pg/mL; in data set [5] (test agent 0.10 µM) it was 1.9 pg/mL; in data set [5] (test agent 0.32 µM), 1.1 pg/mL; in data set [5] (test agent 1.0 µM), 0.9 pg/mL; in data set [5] (test agent 3.2 µM) it was 0.5 pg/mL; in data set [5] (test agent 10 µM), 0.7 pg/mL.
